Source: PubChem BioAssay (NCI)
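Compound exposure: 48 hours, 5 concentrations, 96-well plates. GI50 = concentration required for 50% inhibition of growth. The concentration for full growth arrest is given as TGI.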

Assays:
Experiment in all cases: NCI-60 cell line screen, 48 h
NCI-H23 lung = test system: NCI-H23 lung
PC-3 prostate = test system: PC-3 prostate
SN12C renal = test system: SN12C renal
U251 CNS = test system: U251 CNS
NCI-H460 lung = test system: NCI-H460 lung
HS 578T breast = test system: HS 578T breast
IGROV1 ovarian = test system: IGROV1 ovarian
ACHN renal = test system: ACHN renal
SK-MEL-28 melanoma = test system: SK-MEL-28 melanoma
DU-145 prostate = test system: DU-145 prostate
SNB-75 CNS = test system: SNB-75 CNS
OVCAR-8 ovarian = test system: OVCAR-8 ovarian
CAKI-1 renal = test system: CAKI-1 renal
TK-10 renal = test system: TK-10 renal
HL-60(TB) leukemia = test system: HL-60(TB) leukemia
OVCAR-5 ovarian = test system: OVCAR-5 ovarian
HCT-15 colon = test system: HCT-15 colon
OVCAR-3 ovarian = test system: OVCAR-3 ovarian
A498 renal = test system: A498 renal
CCRF-CEM leukemia = test system: CCRF-CEM leukemia
RPMI-8226 leukemia = test system: RPMI-8226 leukemia
BT-549 breast = test system: BT-549 breast
HCC-2998 colon = test system: HCC-2998 colon
UO-31 renal = test system: UO-31 renal
SNB-19 CNS = test system: SNB-19 CNS
786-0 renal = test system: 786-0 renal
MCF7 breast = test system: MCF7 breast
MDA-MB-231 breast = test system: MDA-MB-231 breast
SF-268 CNS = test system: SF-268 CNS
OVCAR-4 ovarian = test system: OVCAR-4 ovarian
UACC-62 melanoma = test system: UACC-62 melanoma
RXF 393 renal = test system: RXF 393 renal
NCI-H226 lung = test system: NCI-H226 lung
SK-MEL-5 melanoma = test system: SK-MEL-5 melanoma
MOLT-4 leukemia = test system: MOLT-4 leukemia
A549 NSCLC = test system: A549 NSCLC
UACC-257 melanoma = test system: UACC-257 melanoma
EKVX NSCLC = test system: EKVX NSCLC
HT29 colon = test system: HT29 colon
SF-539 CNS = test system: SF-539 CNS
T-47D breast = test system: T-47D breast
SW-620 colon = test system: SW-620 colon
HCT-116 colon = test system: HCT-116 colon
NCI/ADR-RES ovarian = test system: NCI/ADR-RES ovarian
COLO 205 colon = test system: COLO 205 colon
SK-MEL-2 melanoma = test system: SK-MEL-2 melanoma
KM12 colon = test system: KM12 colon
MALME-3M melanoma = test system: MALME-3M melanoma
SF-295 CNS = test system: SF-295 CNS
SK-OV-3 ovarian = test system: SK-OV-3 ovarian
MDA-MB-435 = test system: MDA-MB-435
SR leukemia = test system: SR leukemia
HOP-92 NSCLC = test system: HOP-92 NSCLC
HOP-62 NSCLC = test system: HOP-62 NSCLC
M14 melanoma = test system: M14 melanoma
LOX IMVI melanoma = test system: LOX IMVI melanoma
NCI-H522 lung = test system: NCI-H522 lung

With CCc1ccc(C(=O)/C=C/C23c4ccccc4C(c4ccccc42)C2C(=O)NC(=O)C23)cc1 (centres undefined) the GI50 (NCI-H23 lung) was 2.09 µM, the TGI (NCI-H23 lung) was 4.15 µM and the GI50 (PC-3 prostate) was 1.73 µM. The TGI (PC-3 prostate) was 3.7 µM, the GI50 (SN12C renal) was 1.76 µM and the TGI (SN12C renal) was 3.42 µM. The GI50 (U251 CNS) was 1.75 µM, the TGI (U251 CNS) was 3.17 µM and the GI50 (NCI-H460 lung) was 2.12 µM. The TGI (NCI-H460 lung) was 5.09 µM, the GI50 (HS 578T breast) was 2.24 µM and the TGI (HS 578T breast) was 8.73 µM. The GI50 (IGROV1 ovarian) was 1.76 µM, the TGI (IGROV1 ovarian) was 4.1 µM and the GI50 (ACHN renal) was 3.35 µM. For the same compound, the TGI (ACHN renal) was 12.3 µM, the GI50 (SK-MEL-28 melanoma) was 1.96 µM and the TGI (SK-MEL-28 melanoma) was 3.6 µM. The GI50 (DU-145 prostate) was 1.66 µM, the TGI (DU-145 prostate) was 3.08 µM and the GI50 (SNB-75 CNS) was 1.67 µM. For the same compound, the TGI (SNB-75 CNS) was 3.45 µM, the GI50 (OVCAR-8 ovarian) was 2.09 µM and the TGI (OVCAR-8 ovarian) was 5.68 µM. It also gave a GI50 (CAKI-1 renal) of 2.27 µM, a TGI (CAKI-1 renal) of 7.29 µM and a GI50 (TK-10 renal) of 2.62 µM. For the same compound, the TGI (TK-10 renal) was 6.47 µM, the GI50 (HL-60(TB) leukemia) was 0.0697 µM and the TGI (HL-60(TB) leukemia) was 1.93 µM. It also gave a GI50 (OVCAR-5 ovarian) of 2.23 µM, a TGI (OVCAR-5 ovarian) of 5.57 µM and a GI50 (HCT-15 colon) of 1.79 µM. It also gave a TGI (HCT-15 colon) of 4.02 µM, a GI50 (OVCAR-3 ovarian) of 1.71 µM and a TGI (OVCAR-3 ovarian) of 3.1 µM. It also gave a GI50 (A498 renal) of 1.71 µM, a TGI (A498 renal) of 3.14 µM and a GI50 (CCRF-CEM leukemia) of 2.66 µM. It also gave a TGI (CCRF-CEM leukemia) of 11 µM, a GI50 (RPMI-8226 leukemia) of 1.87 µM and a TGI (RPMI-8226 leukemia) of 4.6 µM. It also gave a GI50 (BT-549 breast) of 1.73 µM, a TGI (BT-549 breast) of 3.67 µM and a GI50 (HCC-2998 colon) of 2.09 µM. The TGI (HCC-2998 colon) was 3.65 µM, the GI50 (UO-31 renal) was 1.47 µM and the TGI (UO-31 renal) was 5.55 µM. For the same compound, the GI50 (SNB-19 CNS) was 1.93 µM, the TGI (SNB-19 CNS) was 3.96 µM and the GI50 (786-0 renal) was 1.81 µM. It also gave a TGI (786-0 renal) of 3.54 µM, a GI50 (MCF7 breast) of 1.89 µM and a TGI (MCF7 breast) of 5.62 µM. The GI50 (MDA-MB-231 breast) was 2.76 µM, the TGI (MDA-MB-231 breast) was 8.33 µM and the GI50 (SF-268 CNS) was 1.86 µM. For the same compound, the TGI (SF-268 CNS) was 4.09 µM, the GI50 (OVCAR-4 ovarian) was 2.9 µM and the TGI (OVCAR-4 ovarian) was 11.9 µM. For the same compound, the GI50 (UACC-62 melanoma) was 1.73 µM, the TGI (UACC-62 melanoma) was 3.48 µM and the GI50 (RXF 393 renal) was 1.72 µM. It also gave a TGI (RXF 393 renal) of 3.24 µM, a GI50 (NCI-H226 lung) of 2.68 µM and a TGI (NCI-H226 lung) of 9.12 µM. It also gave a GI50 (SK-MEL-5 melanoma) of 1.65 µM, a TGI (SK-MEL-5 melanoma) of 3.21 µM and a GI50 (MOLT-4 leukemia) of 2.23 µM. The TGI (MOLT-4 leukemia) was 7.97 µM, the GI50 (A549 NSCLC) was 2.07 µM and the TGI (A549 NSCLC) was 5.54 µM. It also gave a GI50 (UACC-257 melanoma) of 1.9 µM, a TGI (UACC-257 melanoma) of 4.15 µM and a GI50 (EKVX NSCLC) of 1.6 µM. It also gave a TGI (EKVX NSCLC) of 3.56 µM, a GI50 (HT29 colon) of 2.2 µM and a TGI (HT29 colon) of 4.75 µM. It also gave a GI50 (SF-539 CNS) of 1.69 µM, a TGI (SF-539 CNS) of 3.22 µM and a GI50 (T-47D breast) of 2.28 µM. The TGI (T-47D breast) was 6.4 µM, the GI50 (SW-620 colon) was 2.37 µM and the TGI (SW-620 colon) was 5.72 µM. For the same compound, the GI50 (HCT-116 colon) was 1.58 µM, the TGI (HCT-116 colon) was 3.65 µM and the GI50 (NCI/ADR-RES ovarian) was 2.15 µM. It also gave a TGI (NCI/ADR-RES ovarian) of 4.73 µM, a GI50 (COLO 205 colon) of 2.13 µM and a TGI (COLO 205 colon) of 4.02 µM. The GI50 (SK-MEL-2 melanoma) was 2.23 µM, the TGI (SK-MEL-2 melanoma) was 4.65 µM and the GI50 (KM12 colon) was 1.82 µM. For the same compound, the TGI (KM12 colon) was 3.77 µM, the GI50 (MALME-3M melanoma) was 1.82 µM and the TGI (MALME-3M melanoma) was 3.96 µM. For the same compound, the GI50 (SF-295 CNS) was 2.45 µM, the TGI (SF-295 CNS) was 5.73 µM and the GI50 (SK-OV-3 ovarian) was 2.84 µM. It also gave a TGI (SK-OV-3 ovarian) of 7.54 µM, a GI50 (MDA-MB-435) of 2.31 µM and a TGI (MDA-MB-435) of 5.53 µM. For the same compound, the GI50 (SR leukemia) was 1.37 µM, the TGI (SR leukemia) was 4.36 µM and the GI50 (HOP-92 NSCLC) was 1.73 µM. The TGI (HOP-92 NSCLC) was 3.5 µM, the GI50 (HOP-62 NSCLC) was 2.87 µM and the TGI (HOP-62 NSCLC) was 8.82 µM. For the same compound, the GI50 (M14 melanoma) was 2.07 µM, the TGI (M14 melanoma) was 4.74 µM and the GI50 (LOX IMVI melanoma) was 1.67 µM. The TGI (LOX IMVI melanoma) was 3.16 µM, the GI50 (NCI-H522 lung) was 1.96 µM and the TGI (NCI-H522 lung) was 4.89 µM.
